Columns and labels:
Test in all cases: cells
Parameters in all cases: CellTiter-Glo 2.0 luminescence proliferation/viability assay, single agents, human tumour cell line panel
CFPAC-1 = settings: Homo sapiens, CFPAC-1, 96 h; single agent; read-out: IC50 SMACm
Procedure: (§1) The effect of BETi, SMACm alone or in combination cell viability was determined using a 96-h CellTiter-Glo2.0 proliferation assay. Cells were seeded in assay plates and placed at 37°C with 5% CO2 for twenty-four hours before treatment. Compounds were added in triplicate in gradients of increasing concentrations, in case of SMACm ranging between 4.5 nM and 10 μM and in case of BETi between 1.4 nM and 3 μM. DMSO served as control. Cell viability was measured by luminescence analysis using luminescence read on Envision plate readers (PerkinElmer). An additional set of colorectal cancer cell lines was assayed with technical duplicates and experimental triplicates. Cell viability was measured by luminescence analysis using luminescence read on Tecan Plate reader. The effects of drug combinations were analyzed using the Bliss Independence Model.[34] Synergy score was calculated by the average of 3 highest and 3 lowest BLISS Gaps between predicted and measured POC (Percentage of Control) values. To investigate the synergistic interaction between BI 894999 (hereafter, BETi) and BI 891065 (hereafter, SMACm), we evaluated the in vitro anti-tumor effect of the single agents or the combination in a large panel of 151 cancer cell lines of different tissue origin: CRC, gastric cancer, non-small cell lung cancer (NSCLC), and pancreatic carcinoma (Figures 1C–1F). As a mono-agent, SMACm was able to inhibit cell proliferation only in a limited number of tested cell lines (4%, Table S2). Most of the cell lines responded to inhibition by BETi, with sensitivity ranging from 10 to 100 nM (Figure 1C). Bliss Gap analysis, performed to analyze the effect of the BETi+SMACm combination on tumor cell growth (Figures 1D–1F), unveiled potent synergistic activity across the cell models tested (Figure 1E), independent of tumor type (Figure 1F).  Figure 1 The combinatorial effect of BI 894999 and BI 891065 across a panel of human tumor cell lines (A) Selectivity and potency profiles of BI 891065. Top left, structure of BI 891065. Top right, IC50 values for BI 891065 inhibition of cIAP1, cIAP2, and XIAP. Bottom, physicochemical properties of […]. (B) WES (Simple Western System) analysis of cIAP1, cIAP2, and XIAP levels upon treatment of HT-29 cells with indicated concentrations of BI 891065 for 6 h (C) IC50 values determined in cell proliferation assays (n = 151) individually for BETi BI 894999 and SMACm BI 891065. Each point represents a cell line tested. (D) Example of proliferation assay for synergy analysis in LoVo cell line; shown is combination plate map matrix and the cell growth inhibition (CGI) at the indicated concentrations; CGI values < 100%: tumor cell growth, CGI 100%: tumor cell stasis, and CGI > 100%: tumor cell killing. (E) Synergy scores across the tested panel of cell lines obtained using Bliss synergy analysis. (F) Violin plots showing the synergy scores for BETi and SMACm combination across indications. N is the number of cell lines tested in each indication group.

HCA46 = settings: 96 h; single agent; read-out: IC50 SMACm
Procedure: as §1

HCC-15 = settings: HCC15, 96 h; single agent; read-out: IC50 SMACm
Procedure: as §1

HCC2998 = settings: Homo sapiens, HCC 2998, 96 h; single agent; read-out: IC50 SMACm
Procedure: as §1

HGC-27 = settings: Homo sapiens, HGC-27, 96 h; single agent; read-out: IC50 SMACm
Procedure: as §1

HLC-1 = settings: 96 h; single agent; read-out: IC50 SMACm
Procedure: as §1

HPAF-II = settings: Homo sapiens, HPAF-II, 96 h; single agent; read-out: IC50 SMACm
Procedure: as §1

KM12 = settings: Homo sapiens, KM12, 96 h; single agent; read-out: IC50 SMACm
Procedure: as §1

NCI-H1838 = settings: Homo sapiens, NCI-H1838, 96 h; single agent; read-out: IC50 SMACm
Procedure: as §1

NCI-H520 = settings: Homo sapiens, NCI-H520, 96 h; single agent; read-out: IC50 SMACm
Procedure: as §1

SNU-16 = settings: Homo sapiens, SNU-16, 96 h; single agent; read-out: IC50 SMACm
Procedure: as §1

SNU1181 = settings: 96 h; single agent; read-out: IC50 SMACm
Procedure: as §1

SNU1460 = settings: 96 h; single agent; read-out: IC50 SMACm
Procedure: as §1

SNU1684 = settings: 96 h; single agent; read-out: IC50 SMACm
Procedure: as §1

SW1417 = settings: Homo sapiens, SW1417, 96 h; single agent; read-out: IC50 SMACm
Procedure: as §1

SMILES: CN[C@@H](C)C(=O)Nc1ccc(-c2c(-c3cccnc3OC)nc3cc(C)ccn23)c(C#Cc2ccc3c(C)nccc3c2)n1 [SMACm, BI 891065]
- IC50 (CFPAC-1): 1.99 µM
- IC50 (HCA46): 3.54 µM
- IC50 (HCC-15): 4.6 µM
- IC50 (HCC2998): 3.06 µM
- IC50 (HGC-27): 2.89 µM
- IC50 (HLC-1): 5.83 µM
- IC50 (HPAF-II): 4.64 µM
- IC50 (KM12): 7.46 µM
- IC50 (NCI-H1838): 4.25 µM
- IC50 (NCI-H520): 4.01 µM
- IC50 (SNU-16): 4.32 µM
- IC50 (SNU1181): 5.08 µM
- IC50 (SNU1460): 3.15 µM
- IC50 (SNU1684): 3.2 µM
- IC50 (SW1417): 3.9 µM
